The values below are quoted from earlier work in patent US20070183984A1, “CALCIUM PHOSPHATE SALTS IN ORAL COMPOSITIONS SUITABLE AS A TOOTH REMINERALIZING AGENT” (WM. WRIGLEY JR. COMPANY, priority 2006, published 2007).

The conditions of the first data set: g in about 100 ml of water at about 20° C.
As for `O=C(O)/C=C/C(=O)O` [fumaric acid], the solubility in water entry is “about 0.6%”.

With polyaspartic acid, the solubility in water entry was “about 5%”.

For `O=C(O)CC(O)C(=O)O` (stereo not drawn) [malic acid], the solubility in water entry is recorded as “about 55%”.

Take polyglutamic acid: the solubility in water entry is listed as “about 5%”.

For the next data set the following is noted: octanol/water partition coefficient.
Take `O=C(O)CC(O)C(=O)O` (stereo not drawn) [malic acid]: the “Log Pow” value is given as −1.26.

In the case of `O=C(O)CCCCC(=O)O` [adipic acid], the “Log Pow” value is recorded as 0.08.
